Test results from patent US20190085024A1, “Alpha-Ketoamide Inhibitors Of Cysteine Proteases” (Phelix Therapeutics, priority 2017, published 2019).
Read-outs that look alike come from different tables or passages of the source. *1 amine or outer side, *2 acyl side, *3 side chain or, on linkers, in order; H or OH if unused. Where a SMILES comes first, the peptide text is derived from it. [ ]: non-standard residue; d: D form. The star is where a group is joined. 2Nal = N[CH](Cc1ccc2ccccc2c1)C(=O)O; X1 = CCC(C)C(N[*:1])C(=O)C(=O)[*:2]; Cbz = O=C(OCc1ccccc1)*

What was measured:
[1] = test system: EBOV WT (Ebola Wild Type); assay: microbe, parasite or virus in culture; format: cell-based; conditions: read-out: EBOV WT (μM) (Ebola Wild Type)
[2] = test system: MARV WT (Marburg Wild Type); assay: organism not typed; format: cell-based; conditions: read-out: MARV WT (μM) (Marburg Wild Type)
[3] = molecular target: Cat S (Homo sapiens, UniProt P25774); assay: Cat S inhibition; format: biochemical
Sequence of Cat S (P25774 115-331): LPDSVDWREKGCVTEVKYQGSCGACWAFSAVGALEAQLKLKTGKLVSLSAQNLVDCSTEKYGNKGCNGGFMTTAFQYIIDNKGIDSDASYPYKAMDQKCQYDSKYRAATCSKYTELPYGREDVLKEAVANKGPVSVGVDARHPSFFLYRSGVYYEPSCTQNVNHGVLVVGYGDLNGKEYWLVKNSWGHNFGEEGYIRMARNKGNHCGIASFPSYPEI

[4] = molecular target: Cathepsin L (Homo sapiens, UniProt P07711); assay: Cathepsin L enzyme assay; format: biochemical; conditions: Ki by Morrison equation; pH 5.5, substrate Z-Phe-Arg-Amc; read-out: Cat L
Sequence of Cathepsin L (P07711 114-333, species assumed): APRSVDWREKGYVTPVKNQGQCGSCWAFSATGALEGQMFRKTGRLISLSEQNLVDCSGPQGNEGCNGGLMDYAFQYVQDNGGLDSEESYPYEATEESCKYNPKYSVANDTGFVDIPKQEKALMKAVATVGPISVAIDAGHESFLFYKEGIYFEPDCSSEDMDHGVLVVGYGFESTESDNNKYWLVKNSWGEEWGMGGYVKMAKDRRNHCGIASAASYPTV
Text: Two wells contained DMSO only for controls.
Velocity was converted to μM/sec.

[5] = test system: MERS WT; assay: microbe, parasite or virus in culture; format: cell-based
[6] = molecular target: T1, Cat K (Homo sapiens, UniProt P43235); assay: Cat K inhibition; format: biochemical
T1 sequence (P43235 115-329): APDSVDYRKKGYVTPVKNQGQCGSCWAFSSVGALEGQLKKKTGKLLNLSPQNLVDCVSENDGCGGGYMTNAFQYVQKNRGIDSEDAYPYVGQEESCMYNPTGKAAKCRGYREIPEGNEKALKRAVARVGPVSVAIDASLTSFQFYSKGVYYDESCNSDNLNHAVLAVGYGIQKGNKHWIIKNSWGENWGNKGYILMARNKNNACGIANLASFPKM

[7] = molecular target: Calpain; assay: Calpain enzyme assay; format: biochemical; conditions: Ki by Morrison equation; pH 7.5, 5 mM CaCl2
[8] = molecular target: Cathepsin B (Homo sapiens, UniProt P07858); assay: Cathepsin B enzyme assay; conditions: Cat B (μM), Ki by Morrison equation; pH 6.0, substrate Z-Phe-Arg-Amc
[9] = test system: Collagen; assay: Fibrosis-Sirius Red Collagen Assay; format: cell-based
[10] = test system: SMA; assay: Fibrosis-SMA Elisa; format: cell-based
[11] = Middle East respiratory syndrome-related coronavirus, read-out: MERS WT (μM)

Row | Compound | IC50 ([1]; Zaire ebolavirus) | IC50 [2] | Ki [3] | Ki [4] | IC50 [5, 11] | Ki [6] | Ki [7] | Ki [8] | IC50 [1] | IC50 ([5]; read-out: MERS WT) | IC50 [9] | IC50 [10]
1 | CC(C)CC(NC(=O)OCc1ccccc1)C(=O)NC(C)C(=O)C(=O)NCC(=O)NC(Cc1ccc2ccccc2c1)C(N)=O (stereo not shown) [PHELIX184, benzyl (1-((4-((2-((1-amino-3-(naphthalen-2-yl)-1-oxopropan-2-yl)amino)-2-oxoethyl)amino)-3,4-dioxobutan-2-yl)amino)-4-methyl-1-oxopentan-2-yl)carbamate] | 1.87 µM | 3.34 µM | 1 nM | 4.85 nM | 7.2 µM | 0.5 nM | 10.3 nM | 0.641 µM |  |  |  | 
2 | CC(C)CC(NC(=O)OCc1ccccc1)C(=O)NC(C)C(=O)C(=O)N1CC(C(=O)NC(Cc2ccccc2)C(N)=O)C1 (stereo not shown) [PHELIX187, benzyl (1-((4-(3-((1-amino-1-oxo-3-phenylpropan-2-yl)carbamoyl)azetidin-1-yl)-3,4-dioxobutan-2-yl)amino)-4-methyl-1-oxopentan-2-yl)carbamate] | 3.66 µM | 13.5 µM | 2.04 nM | 53.6 nM | 56 µM | 3.8 nM | 45.5 nM | 0.0479 µM |  |  |  | 
3 | CC[C@H](C)[C@H](NC(=O)C(=O)C(Cc1ccccc1)NC(=O)C(Cc1ccccc1)NC(=O)Cc1ccccc1)C(=O)N1CCCC1C(N)=O (stereo partly shown) [PHELIX204, 1-((2-oxo-4-phenyl-3-(3-phenyl-2-(2-phenylacetamido)propanamido)butanoyl)isoleucyl)pyrrolidine-2-carboxamide] | 0.13 µM | 0.42 µM | 0.44 nM | 0.01 nM | 1.8 µM | 9.3 nM | 204 nM | 0.277 µM |  |  |  | 
4 | CC(NC(=O)C(Cc1ccc2ccccc2c1)NC(=O)Cc1ccccc1)C(=O)C(=O)NC(Cc1ccccc1)C(=O)NC(C)(C)C(N)=O (stereo not shown) [PHELIX206, N-(1-((1-amino-2-methyl-1-oxopropan-2-yl)amino)-1-oxo-3-phenylpropan-2-yl)-3-(3-(naphthalen-2-yl)-2-(2-phenylacetamido)propanamido)-2-oxobutanamide] | 2.51 µM | 4.68 µM | 3.96 nM | 6.52 nM | 12.6 µM | > 10000 nM | > 10000 nM | 0.12 µM |  |  |  | 
5 | CC(NC(=O)C(Cc1ccccc1)NC(=O)Cc1ccccc1)C(=O)C(=O)NC(Cc1ccccc1)C(=O)NC(Cc1ccc2ccccc2c1)C(N)=O (stereo not shown) [PHELIX215, N-(1-((1-amino-3-(naphthalen-2-yl)-1-oxopropan-2-yl)amino)-1-oxo-3-phenylpropan-2-yl)-2-oxo-3-(3-phenyl-2-(2-phenylacetamido)propanamido)butanamide] |  | 0.16 µM | 0.48 nM | 0.18 nM |  | 22.2 nM | > 10000 nM | 9.24 µM | 0.02 µM | 0.99 µM |  | 
6 | Cc1cccc(CC(=O)NC(Cc2ccccc2)C(=O)NC(C)C(=O)C(=O)NC(Cc2ccccc2)C(=O)NC(C)(C)C(N)=O)c1 (stereo not shown) [PHELIX225, N-(1-((1-amino-2-methyl-1-oxopropan-2-yl)amino)-1-oxo-3-phenylpropan-2-yl)-2-oxo-3-(3-phenyl-2-(2-(m-tolyl)acetamido)propanmido)butanamide] | 6.17 µM |  | 8.12 nM | 18.6 nM | 84.2 µM | 254 nM | > 10000 nM | 0.299 µM |  |  |  | 
7 | CC(NC(=O)C(Cc1ccccc1)NC(=O)Cc1cccc(F)c1)C(=O)C(=O)NC(Cc1ccccc1)C(=O)NC(C)(C)C(N)=O (stereo not shown) [PHELIX227, N-(1-((1-amino-2-methyl-1-oxopropan-2-yl)amino)-1-oxo-3-phenylpropan-2-yl)-3-(2-(2-(3-fluorophenyl)acetamido)-3-phenylpropanmido)-2-oxobutanamide] | 16.8 µM |  | 16.3 nM | 58.9 nM | > 10 µM | 536 nM | > 10000 nM | 0.171 µM |  |  |  | 
8 | CC(C)CC(NC(=O)C(Cc1ccccc1)NC(=O)OCc1ccccc1)C(=O)NC(Cc1ccccc1)C(=O)C(=O)NC(CCCNC(=N)N)C(N)=O (stereo not shown) [PHELIX254, benzyl (1-amino-10-benzyl-6-carbamoyl-1-imino-13-isobutyl-8,9,12,15-tetraoxo-17-phenyl-2,7,11,14-tetraazaheptadecan-16-yl)carbamate] |  |  |  | 0.71 nM | > 30 µM |  | 3.42 nM | 0.0432 µM |  |  | 3.4 µM | 
9 | CCC(C)C(NC(=O)C(CC(C)C)NC(=O)C(Cc1ccccc1)NC(=O)OCc1ccccc1)C(=O)C(=O)NCC(=O)NC(Cc1ccc2ccccc2c1)C(N)=O (stereo not shown) [PHELIX270, benzyl (1-amino-9-(sec-butyl)-12-isobutyl-2-(naphthalen-2-ylmethyl)-1,4,7,8,11,14-hexaoxo-16-phenyl-3,6,10,13-tetraazahexadecan-15-yl)carbamate] (Cbz-FL[X1]G[2Nal]-NH2; configuration not given here) |  |  |  | 1.82 nM | > 30 µM |  | 0.53 nM | > 10 µM |  |  | 3.1 µM | 
10 | CCC(C)C(NC(=O)C(CC(C)C)NC(=O)OCc1ccccc1)C(=O)C(=O)N1CC(C(=O)NC(Cc2ccc3ccccc3c2)C(N)=O)C1 (stereo not shown) [PHELIX297, benzyl (1-((1-(3-((1-amino-3-(naphthalen-2-yl)-1-oxopropan-2-yl)carbamoyl)azetidin-1-yl)-4-methyl-1,2-dioxohexan-3-yl)amino)-4-methyl-1-oxopentan-2-yl)carbamate] |  |  |  | 42.4 nM |  |  | 39.9 nM | 0.235 µM |  |  | 3.8 µM | 3400 nM
11 | CCC(C)C(NC(=O)C(CC(C)C)NC(=O)Cc1ccccc1)C(=O)C(=O)NCC(=O)NC(Cc1ccc2ccccc2c1)C(N)=O (stereo not shown) [PHELIX300, N-(2-((1-amino-3-(naphthalen-2-yl)-1-oxopropan-2-yl)amino)-2-oxoethyl)-4-methyl-3-(4-methyl-2-(2-phenylacetamido)pentanamido)-2-oxohexanamide] |  |  |  | 0.02 nM |  |  | 0.81 nM |  |  |  | 4.5 µM | 
12 | CCC(C)C(NC(=O)C(CC(C)C)NC(=O)OCc1ccccc1)C(=O)C(=O)NC(Cc1ccc2ccccc2c1)C(N)=O (stereo not shown) [PHELIX309, benzyl (1-((1-((1-amino-3-(naphthalen-2-yl)-1-oxopropan-2-yl)amino)-4-methyl-1,2-dioxohexan-3-yl)amino)-4-methyl-1-oxopentan-2-yl)carbamate] |  |  |  | 9.76 nM |  |  | 1.34 nM | > 10 µM |  |  | 2.7 µM | 2000 nM
13 | CCC(C)C(NC(=O)C(CC(C)C)NC(=O)CN1CCOCC1)C(=O)C(=O)NCC(=O)NC(Cc1ccc2ccccc2c1)C(N)=O (stereo not shown) [PHELIX314, N-(2-((1-amino-3-(naphthalen-2-yl)-1-oxopropan-2-yl)amino)-2-oxoethyl)-4-methyl-3-(4-methyl-2-(2-morpholinoacetamido)pentanamido)-2-oxohexanamide] |  |  |  | 3.06 nM |  |  | 2.44 nM | 0.387 µM |  |  |  | 1200 nM
14 | CCC(C)C(NC(=O)C(CC(C)C)NC(=O)OCc1ccccc1)C(=O)C(=O)NCC(=O)N(C)C(Cc1ccccc1)C(N)=O (stereo not shown) [PHELIX319, benzyl (1-((1-((2-((1-amino-1-oxo-3-phenylpropan-2-yl)(methyl)amino)-2-oxoethyl)amino)-4-methyl-1,2-dioxohexan-3-yl)amino)-4-methyl-1-oxopentan-2-yl)carbamate] |  |  |  | 0.28 nM |  |  | 0.68 nM | 0.456 µM |  |  | 11.7 µM | 
